The structures appear in SMILES notation. The source made the active and inactive calls.

Assay [1] concerns the target T1, Sentrin-specific protease 8 (Homo sapiens, UniProt Q96LD8).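 Also: luminescence read-out of SENP8 inhibition, dose-response confirmation following an ultra-high-throughput screen.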
T1 sequence (Q96LD8 whole entry): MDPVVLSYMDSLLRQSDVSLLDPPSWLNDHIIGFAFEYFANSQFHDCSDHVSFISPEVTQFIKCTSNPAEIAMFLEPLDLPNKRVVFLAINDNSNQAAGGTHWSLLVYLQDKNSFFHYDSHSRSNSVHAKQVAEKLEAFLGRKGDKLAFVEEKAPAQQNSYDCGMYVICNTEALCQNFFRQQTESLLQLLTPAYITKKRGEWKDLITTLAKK
In kind it is functional.

Assay [2] has as its target T2, Aminopeptidase N (Plasmodium falciparum FcB1/Columbia, UniProt O96935).
T2 sequence (O96935 whole entry): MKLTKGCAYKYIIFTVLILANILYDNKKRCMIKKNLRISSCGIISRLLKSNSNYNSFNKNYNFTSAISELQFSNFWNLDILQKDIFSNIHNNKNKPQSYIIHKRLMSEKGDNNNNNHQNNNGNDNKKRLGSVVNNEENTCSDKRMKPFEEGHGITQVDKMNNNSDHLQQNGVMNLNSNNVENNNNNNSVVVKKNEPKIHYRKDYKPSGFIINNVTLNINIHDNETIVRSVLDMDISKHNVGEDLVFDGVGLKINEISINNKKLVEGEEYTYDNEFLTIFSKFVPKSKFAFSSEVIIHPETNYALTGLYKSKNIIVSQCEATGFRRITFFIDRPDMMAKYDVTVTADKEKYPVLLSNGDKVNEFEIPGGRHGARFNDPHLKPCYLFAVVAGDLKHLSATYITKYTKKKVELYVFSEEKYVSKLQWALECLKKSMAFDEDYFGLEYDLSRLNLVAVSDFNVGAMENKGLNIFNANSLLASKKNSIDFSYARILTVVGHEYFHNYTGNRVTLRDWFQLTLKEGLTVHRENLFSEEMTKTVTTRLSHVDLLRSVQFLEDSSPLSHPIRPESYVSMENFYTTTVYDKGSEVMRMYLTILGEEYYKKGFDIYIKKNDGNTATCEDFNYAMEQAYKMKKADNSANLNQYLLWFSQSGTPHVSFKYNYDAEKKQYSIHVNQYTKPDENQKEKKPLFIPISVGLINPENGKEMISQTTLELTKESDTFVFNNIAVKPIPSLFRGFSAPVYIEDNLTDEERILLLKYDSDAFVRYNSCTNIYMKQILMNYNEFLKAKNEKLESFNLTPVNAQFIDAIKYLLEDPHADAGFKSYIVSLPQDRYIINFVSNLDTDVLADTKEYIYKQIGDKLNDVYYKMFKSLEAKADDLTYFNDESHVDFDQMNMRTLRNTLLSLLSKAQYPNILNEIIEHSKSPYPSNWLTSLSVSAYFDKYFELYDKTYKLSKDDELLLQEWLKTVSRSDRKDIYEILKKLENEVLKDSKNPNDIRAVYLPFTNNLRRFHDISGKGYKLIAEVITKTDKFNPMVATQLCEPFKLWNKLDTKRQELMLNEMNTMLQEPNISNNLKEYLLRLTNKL
The experiment in a line: malaria alanyl aminopeptidase activity blockers – biochemical, fluorogenic H-Leu-NHMec substrate, 1536-well (AID 1445). The arrangement: species or system Plasmodium falciparum 3D7, 3D7.

Assay [3] has as its target T3, Histone-lysine N-methyltransferase NSD2 (Homo sapiens, UniProt O96028).
T3 sequence (O96028 whole entry): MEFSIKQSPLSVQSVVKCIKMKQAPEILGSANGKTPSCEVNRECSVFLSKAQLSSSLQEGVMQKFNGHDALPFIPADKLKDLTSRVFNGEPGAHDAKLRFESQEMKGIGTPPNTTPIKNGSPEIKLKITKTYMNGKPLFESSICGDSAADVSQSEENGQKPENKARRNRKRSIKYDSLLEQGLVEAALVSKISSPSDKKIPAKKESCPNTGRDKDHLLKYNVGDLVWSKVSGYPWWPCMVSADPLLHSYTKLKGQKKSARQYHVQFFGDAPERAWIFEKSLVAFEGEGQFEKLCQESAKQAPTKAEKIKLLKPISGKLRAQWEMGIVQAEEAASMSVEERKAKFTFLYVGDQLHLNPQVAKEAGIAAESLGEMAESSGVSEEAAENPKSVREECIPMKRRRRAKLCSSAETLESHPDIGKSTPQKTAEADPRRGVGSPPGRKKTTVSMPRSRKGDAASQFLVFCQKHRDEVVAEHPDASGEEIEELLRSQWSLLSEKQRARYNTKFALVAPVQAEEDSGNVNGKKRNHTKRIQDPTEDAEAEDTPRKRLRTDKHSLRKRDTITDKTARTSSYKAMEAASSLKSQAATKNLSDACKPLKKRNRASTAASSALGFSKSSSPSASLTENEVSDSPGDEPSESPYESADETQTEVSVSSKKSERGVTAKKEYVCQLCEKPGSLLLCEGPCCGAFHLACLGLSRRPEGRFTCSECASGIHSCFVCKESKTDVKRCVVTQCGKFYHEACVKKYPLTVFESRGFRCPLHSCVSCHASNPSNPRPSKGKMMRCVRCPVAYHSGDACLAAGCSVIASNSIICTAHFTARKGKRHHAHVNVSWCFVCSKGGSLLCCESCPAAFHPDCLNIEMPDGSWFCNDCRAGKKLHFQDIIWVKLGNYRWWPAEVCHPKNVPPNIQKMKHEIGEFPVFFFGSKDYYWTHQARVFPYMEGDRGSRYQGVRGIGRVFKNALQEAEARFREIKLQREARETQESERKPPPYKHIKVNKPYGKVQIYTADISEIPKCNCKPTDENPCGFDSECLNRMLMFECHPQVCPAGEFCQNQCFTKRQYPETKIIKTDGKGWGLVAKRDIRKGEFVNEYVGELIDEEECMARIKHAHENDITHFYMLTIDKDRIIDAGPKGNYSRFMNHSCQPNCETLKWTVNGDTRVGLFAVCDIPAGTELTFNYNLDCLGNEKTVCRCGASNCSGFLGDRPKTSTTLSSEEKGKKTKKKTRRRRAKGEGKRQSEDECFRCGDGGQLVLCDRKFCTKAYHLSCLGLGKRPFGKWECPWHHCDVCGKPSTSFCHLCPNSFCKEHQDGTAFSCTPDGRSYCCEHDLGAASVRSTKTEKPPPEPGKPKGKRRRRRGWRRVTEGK
The class given is biochemical.

As for `c1ccc2c(Nc3nnc(-c4ccncc4)s3)cccc2c1`, the IC50 in assay [1] was > 100 µM (inactive).
Consider `N#Cc1c(O)nc(SCC(=O)N2c3ccccc3Sc3ccccc32)nc1-c1ccccc1`, for which the IC50 in assay [2] is 11.2 µM (active).
Take `COc1cc(C(=O)c2nccc3cc(OC)c(OC)cc23)c([N+](=O)[O-])cc1OC`: the IC50 in assay [1] was 4.97 µM (active). Further, the AC50 in assay [3] is > 20 µM (inactive).
As to `N=C1S/C(=C\c2ccc(-c3ccccc3C(=O)O)o2)C(=O)N1c1ccc2c(c1)OCO2`, in assay [2], the IC50 was 10.3 µM (active). Also, the AC50 in assay [3] was 3.28 µM (active).

These data come from ChEMBL document CHEMBL1201862, “PubChem BioAssay data set” (2004).
